# Results as given in patent publication US8026218B2, “Bifunctional analgesic compounds for opioid receptor agonists and neurokinin-1 receptor antagonists” (The University of Arizona, priority 2006, dated 2011).
# Where two headings read alike, the source gives them in different places. Peptide text beside a SMILES is read from it.
# How the values were obtained:
# [1] = molecular target: T1, rat μ opioid receptors (rMOR) (Rattus norvegicus, UniProt P33535); test: biochemical; format: biochemical
# T1 construct: expressed in transfected cells; host or cells: HN9.10 neuroblastoma cell line, pCDNA3, neomycin-selected clones
# rat NK1 (rNK1) receptor = molecular target: T2, rat NK1 (rNK1) receptor (Rattus norvegicus, UniProt P14600); test: Radioligand competition binding, [3H]substance P, rNK1/CHO membranes; details: for IC50: membranes from transfected CHO cells
# T2 construct: expressed in transfected cells; host or cells: CHO (rNK-1/CHO cell line from Dr. James Krause)
# δ opioid receptors (MVD) = molecular target: T3, δ opioid receptors (MVD) (Mus musculus, UniProt P32300); test: Mouse isolated vas deferens (MVD) assay, opioid agonist
# T3 construct: from tissue; host or cells: mouse (ICR) isolated vas deferens
# [2] = molecular target: T4, human δ opioid receptors (hDOR) (Homo sapiens, UniProt P41143); test: Radioligand competition binding, [3H]DPDPE, hDOR membranes
# T4 construct: expressed in transfected cells; host or cells: HN9.10 neuroblastoma cell line, pCDNA3, neomycin-selected clones
# [3] = molecular target: T1, rat μ opioid receptors (rMOR); test: Radioligand competition binding, [3H]DAMGO, rMOR membranes; details: for LogIC50, rMOR, [3H]DAMGO: membranes from transfected HN9.10 cells
# [4] = molecular target: T4, human δ opioid receptors (hDOR); test: [35S]GTP-γ-S binding assay, hDOR; format: biochemical
# [5] = molecular target: T5, human NK1 receptor (hNK1) (Homo sapiens, UniProt P25103); test: Radioligand competition binding, [3H]-Substance P, hNK1
# T5 construct: expressed in transfected cells
# μ opioid receptors (GPI) = test: Guinea pig isolated ileum (GPI) assay, opioid agonist; parameters: GPI/LMMP Opioid(m) Agonist, % inh.: unit of the concentration uncertain;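 also: inhibition of electrically evoked contractions (0.1 Hz, 0.4 msec, supramaximal voltage) in organ baths at 37 °C, contraction height 3 min after each cumulative dose versus the 1 min before dosing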
# Experimental: Guinea Pig Isolated Ileum Assay. […] These tissues were tied to gold chains with suture silk and mounted between platinum wire electrodes in 20 mL organ baths at a tension of 1 g and bathed in oxygenated (95:5 O2:CO2) Kreb's bicarbonate buffer at 37° C. and stimulated electrically (0.1 Hz, 0.4 msec duration) at supramaximal voltage. Following an equilibration period, compounds were added cumulatively to the bath in volumes of 14-60 μL until maximum inhibition was reached. A baseline PL-017 was constructed to determine tissue integrity and allow calculation of antagonist activity before opioid analog testing began.
# For opioid data analysis, percentage inhibition was calculated using the average tissue contraction height for 1 min preceding the addition of the agonist divided by the contraction height 3 min after exposure to the dose of agonist. […] IC50 and Emax estimates were determined by computerized nonlinear least-squares analysis (the pharmacological statistics package FlashCalc: Dr. Michael Ossipov, University of Arizona, Tucson, Ariz.). […] A50 values represent the mean of not less than 4 tissues. A50 and Emax estimates were determined by computerized nonlinear least-squares analysis (FlashCalc).
# [6] = molecular target: T6, Substance P receptors (guinea pig NK1) (Cavia porcellus, UniProt P30547); test: Guinea pig isolated ileum (GPI) assay with substance P stimulation in presence of 1 μM naloxone; details: for activation at 1 µM: read-out: Substance P GPI agonist (A50), contraction relative to initial muscle contraction with KCl
# T6 construct: from tissue; host or cells: guinea pig (Hartley) ileum LMMP, 1 μM naloxone present
# [7] = Table 27, read-out: GTP binding rMOR EC50
# [8] = Table 27, read-out: GTP binding rMOR Emax (%)
# [9] = Table 39, read-out: GTP binding rMOR EC50
# [10] = Table 39, read-out: GTP binding rMOR Emax
# [11] = net total bound/basal binding × 100, read-out: Emax, rMOR, [35S]GTP-γ-S binding
# [12] = read-out: EC50, rMOR, [35S]GTP-γ-S binding
# [13] = IC50, rNK1, Substance P radioligand
# [14] = Table 28, read-out: MVD Opioid (d) Agonist (IC50; nM)
# [15] = Table 39, read-out: MVD opioid(delta) agonist (IC50; nM)
# [16] = electrically stimulated isolated tissue, read-out: MVD (δ), IC50
# [17] = Substance P antagonist, GPI, Ke, in the presence of 1 μM naloxone
# [18] = Table 27, read-out: Affinity rMOR (Ki; nM)
# [19] = Table 39, read-out: Affinity rMOR (Ki; nM)
# [20] = read-out: EC50, hDOR, [35S]GTP-γ-S binding
# T6 sequence (P30547 whole entry): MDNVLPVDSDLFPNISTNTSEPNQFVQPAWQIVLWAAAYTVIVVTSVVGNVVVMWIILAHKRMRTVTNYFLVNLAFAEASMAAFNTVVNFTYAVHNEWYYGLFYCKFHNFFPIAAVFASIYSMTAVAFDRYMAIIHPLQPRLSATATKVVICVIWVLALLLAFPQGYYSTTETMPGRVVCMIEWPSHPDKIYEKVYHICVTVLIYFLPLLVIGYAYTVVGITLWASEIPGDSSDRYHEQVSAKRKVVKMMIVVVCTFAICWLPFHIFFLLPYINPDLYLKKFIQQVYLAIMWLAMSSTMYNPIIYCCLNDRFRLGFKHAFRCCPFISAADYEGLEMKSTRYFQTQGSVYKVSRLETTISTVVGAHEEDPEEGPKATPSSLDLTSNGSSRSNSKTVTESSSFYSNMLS
# T4 sequence (P41143 whole entry): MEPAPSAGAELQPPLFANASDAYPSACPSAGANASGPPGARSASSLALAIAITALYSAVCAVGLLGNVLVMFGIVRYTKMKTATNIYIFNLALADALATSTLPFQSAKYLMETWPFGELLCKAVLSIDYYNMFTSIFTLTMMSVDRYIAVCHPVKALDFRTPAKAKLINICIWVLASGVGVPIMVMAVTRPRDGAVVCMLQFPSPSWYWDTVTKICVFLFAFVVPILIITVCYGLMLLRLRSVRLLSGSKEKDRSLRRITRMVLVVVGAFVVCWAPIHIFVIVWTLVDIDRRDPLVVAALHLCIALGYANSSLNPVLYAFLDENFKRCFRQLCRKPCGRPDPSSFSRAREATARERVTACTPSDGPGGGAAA
# T3 sequence (P32300 whole entry): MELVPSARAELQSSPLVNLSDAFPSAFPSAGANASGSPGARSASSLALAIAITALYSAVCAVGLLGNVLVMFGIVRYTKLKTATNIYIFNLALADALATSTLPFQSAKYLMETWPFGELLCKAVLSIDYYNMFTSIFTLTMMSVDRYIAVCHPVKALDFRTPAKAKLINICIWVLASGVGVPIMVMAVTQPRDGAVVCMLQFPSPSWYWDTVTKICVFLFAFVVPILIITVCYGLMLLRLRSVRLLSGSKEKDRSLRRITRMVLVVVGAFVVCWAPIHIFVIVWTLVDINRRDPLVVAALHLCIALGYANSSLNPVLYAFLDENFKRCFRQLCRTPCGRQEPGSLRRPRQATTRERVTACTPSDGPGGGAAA
# T2 sequence (P14600 whole entry): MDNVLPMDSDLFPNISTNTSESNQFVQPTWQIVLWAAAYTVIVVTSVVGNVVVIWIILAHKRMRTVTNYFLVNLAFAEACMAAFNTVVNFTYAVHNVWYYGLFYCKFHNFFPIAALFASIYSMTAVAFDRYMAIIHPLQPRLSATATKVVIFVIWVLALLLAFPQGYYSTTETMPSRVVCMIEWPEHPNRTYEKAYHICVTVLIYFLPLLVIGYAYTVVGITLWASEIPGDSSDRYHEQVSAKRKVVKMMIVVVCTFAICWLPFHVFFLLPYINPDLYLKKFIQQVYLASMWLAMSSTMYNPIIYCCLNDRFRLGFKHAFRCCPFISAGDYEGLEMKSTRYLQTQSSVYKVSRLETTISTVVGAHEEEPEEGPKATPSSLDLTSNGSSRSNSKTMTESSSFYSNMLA
# T1 sequence (P33535 whole entry): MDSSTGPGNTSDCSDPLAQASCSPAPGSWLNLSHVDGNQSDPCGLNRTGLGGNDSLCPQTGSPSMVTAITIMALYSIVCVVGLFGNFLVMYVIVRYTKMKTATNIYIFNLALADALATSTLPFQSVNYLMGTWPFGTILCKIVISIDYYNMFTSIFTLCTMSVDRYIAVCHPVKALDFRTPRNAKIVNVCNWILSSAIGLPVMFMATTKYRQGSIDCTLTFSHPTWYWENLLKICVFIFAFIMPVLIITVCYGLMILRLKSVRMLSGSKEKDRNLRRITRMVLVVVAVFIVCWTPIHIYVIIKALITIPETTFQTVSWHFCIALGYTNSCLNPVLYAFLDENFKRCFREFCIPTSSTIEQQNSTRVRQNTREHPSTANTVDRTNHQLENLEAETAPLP
# T5 sequence (P25103 whole entry): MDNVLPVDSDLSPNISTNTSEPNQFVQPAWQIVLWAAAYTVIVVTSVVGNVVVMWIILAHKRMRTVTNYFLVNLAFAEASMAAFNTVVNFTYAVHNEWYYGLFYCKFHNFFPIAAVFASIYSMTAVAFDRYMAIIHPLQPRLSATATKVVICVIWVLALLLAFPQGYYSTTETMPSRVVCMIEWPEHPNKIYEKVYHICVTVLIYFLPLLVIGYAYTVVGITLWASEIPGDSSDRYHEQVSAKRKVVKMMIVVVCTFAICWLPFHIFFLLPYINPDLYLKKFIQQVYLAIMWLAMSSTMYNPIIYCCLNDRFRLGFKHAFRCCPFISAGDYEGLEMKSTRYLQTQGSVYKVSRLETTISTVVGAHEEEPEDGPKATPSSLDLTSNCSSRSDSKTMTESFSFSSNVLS
smiles,measurement,setting,value
CC(C)C[C@H](NC(=O)[C@H](Cc1ccccc1)NC(=O)CNC(=O)[C@@H](C)NC(=O)[C@@H](N)Cc1ccc(O)cc1)C(=O)N[C@@H](Cc1c[nH]c2ccccc12)C(=O)OCc1cc(C(F)(F)F)cc(C(F)(F)F)c1 [NP37] (HELM PEPTIDE1{Y.[dA].G.F.L.W.[FC(F)(F)c1cc(CO[*:1])cc(C(F)(F)F)c1]}$$$$V2.0; N-terminus assumed),EC50,"[1]; Table 32, read-out: GTP rMOR EC50",14 nM
same,Emax,"[1]; Table 32, read-out: GTP rMOR EMax",54%
same,Ki,"rat NK1 (rNK1) receptor; Affinity (Ki, nM) rNK1, Table 32",0.29 nM
same,IC50,δ opioid receptors (MVD),25.7 nM
same,Ki,[2],2.9 nM
same,Ki,[3],23.3 nM
same,EC50,"[4]; Table 32, read-out: GTP hDOR EC50",4.8 nM
same,Emax,"[4]; Table 32, read-out: GTP hDOR EMax",60%
C[C@@H](NC(=O)[C@@H](N)Cc1ccc(O)cc1)C(=O)N[C@@H](Cc1c[nH]c2ccccc12)C(=O)OCc1cc(C(F)(F)F)cc(C(F)(F)F)c1 [NP43],EC50,"[1]; Table 33, read-out: GTP EC50 (nM) rMOR",168 nM
same,Ki,[5],0.004 nM
same,"GPI μ-agonist, % at 1 μM","μ opioid receptors (GPI); Table 36, at 1 μM",3.3% at 1 μM
same,Ki,"rat NK1 (rNK1) receptor; Ki (nM) rNK1, Table 33",2.94 nM
same,"MVD δ-agonist, % at 1 μM","δ opioid receptors (MVD); Table 36, at 1 μM",5.5% at 1 μM
same,Ki,"[2]; Table 33, read-out: Ki (nM) hDOR",100 nM
same,Kb,"[6]; GPI SP-antagonist Ke (nM), Table 36",49.4 nM
same,Ki,"[3]; Table 33, read-out: Ki (nM) rMOR",178 nM
same,EC50,"[4]; Table 33, read-out: GTP EC50 (nM) hDOR",90.9 nM
"CC(C)C[C@H](NC(=O)[C@@H]1CCCN1C(=O)[C@H](Cc1ccccc1)NC(=O)[C@H](Cc1ccccc1)NC(=O)CNC(=O)[C@@H](C)NC(=O)[C@@H](N)Cc1ccc(O)cc1)C(=O)N[C@@H](Cc1c[nH]c2ccccc12)C(=O)OCc1cc(C(F)(F)F)cc(C(F)(F)F)c1 [TY003, H-Tyr-D-Ala-Gly-Phe-Phe-Pro-Leu-Trp-O-3,5-Bzl(CF3)2]","LogEC50, rMOR, [35S]GTP-γ-S binding",[1],−7.23 ± 0.18
same,EC50,[1]; [7],58.7 nM
same,Emax,[1]; [8],36.3%
same,EC50,[1]; [9],58.7 nM
same,Emax,[1]; [10],36.3%
same,Emax,[1]; [11],41%
same,EC50,[1]; [12],58.7 nM
same,"GPI/LMMP Opioid(m) Agonist, % inh.","μ opioid receptors (GPI); Table 28, at 1 (unit uncertain)",7% inh. at 1 mM
same,GPI/LMMP opioid(mu) Antagonist,μ opioid receptors (GPI); Table 39,none
same,"GPI/LMMP opioid(mu) agonist, % at 1 uM","μ opioid receptors (GPI); Table 39, at 1 uM",6.6% @ 1 uM
same,"GPI (μ), effect at single concentration",μ opioid receptors (GPI); at 1 μM,7% at 1 μM^b
same,IC50,rat NK1 (rNK1) receptor; [13],19.3 nM
same,IC50,"rat NK1 (rNK1) receptor; LogIC50, rNK1, Substance P radioligand",19.1 nM
same,IC50,δ opioid receptors (MVD); [14],905 nM
same,IC50,δ opioid receptors (MVD); [15],905 nM
same,IC50,δ opioid receptors (MVD); [16],905 ± 186 nM
same,Ki,[2],14.6 nM
same,Ki(μ)/Ki(δ),"[2]; binding, rMOR vs hDOR",1.9
same,"LogIC50, hDOR, [3H]DPDPE",[2]; membranes from transfected HN9.10 cells,−7.50 ± 0.14
same,Kb,[6]; [17],14.4 ± 4.9 nM
same,GPI/LMMP SP Agonist (IC50; nM),"[6]; Table 39, concentration not given",none
same,activation at 1 µM,[6],0%
same,Ki,[3]; [18],28.3 nM
same,Ki,[3]; [19],28.3 nM
same,"LogIC50, rMOR, [3H]DAMGO",[3],−7.22 ± 0.10
same,Ki,"[3]; read-out: Ki, rMOR, [3H]DAMGO",28.3 nM
same,Ki(μ)/Ki(δ),[4],2.8
same,"LogEC50, hDOR, [35S]GTP-γ-S binding",[4],−7.68 ± 0.20
same,EC50,[4]; [20],20.8 nM
same,Emax,"[4]; read-out: Emax, hDOR, [35S]GTP-γ-S binding",39%
same,EC50,[4]; read-out: GTP binding hDOR EC50,20.8 nM
same,Emax,[4]; read-out: GTP binding hDOR Emax,39%
same,Emax,[4]; read-out: GTP binding hDOR Emax (%),39%
"CC(C)C[C@H](NC(=O)[C@@H]1CCCN1C(=O)CNC(=O)[C@H](Cc1ccccc1)NC(=O)CNC(=O)[C@@H](C)NC(=O)[C@@H](N)Cc1ccc(O)cc1)C(=O)N[C@@H](Cc1c[nH]c2ccccc12)C(=O)OCc1cc(C(F)(F)F)cc(C(F)(F)F)c1 [TY006, H-Tyr-D-Ala-Gly-Phe-Gly-Pro-Leu-Trp-O-3,5-Bzl(CF3)2] (HELM PEPTIDE1{Y.[dA].G.F.G.P.L.W.[FC(F)(F)c1cc(CO[*:1])cc(C(F)(F)F)c1]}$$$$V2.0)","LogEC50, rMOR, [35S]GTP-γ-S binding",[1],−7.38 ± 0.20
same,EC50,[1]; [7],41.7 nM
same,Emax,[1]; [8],35.9%
same,EC50,[1]; [9],41.7 nM
same,Emax,[1]; [10],35.9%
same,Emax,[1]; [11],39%
same,EC50,[1]; [12],41.7 nM
same,Ki,[5],0.016 nM
same,IC50,"μ opioid receptors (GPI); Table 28, read-out: GPI/LMMP Opioid(m) Agonist (IC50; nM)",384 nM
same,IC50,"μ opioid receptors (GPI); Table 39, read-out: GPI/LMMP opioid(mu) agonist (IC50; nM)",384 nM
same,IC50,"μ opioid receptors (GPI); electrically stimulated isolated tissue, read-out: GPI (μ), IC50",384 nM
same,IC50,rat NK1 (rNK1) receptor; [13],15.6 nM
same,IC50,δ opioid receptors (MVD),172 ± 26 nM
same,IC50,δ opioid receptors (MVD); [14],172 nM
same,IC50,δ opioid receptors (MVD); [15],172 nM
same,IC50,δ opioid receptors (MVD); [16],171 nM
same,Ki,"[2]; Table 27, read-out: Affinity hDOR (Ki; nM)",36.1 nM
same,Ki,"[2]; Table 39, read-out: Affinity hDOR (Ki; nM)",36.1 nM
same,Ki,"[2]; read-out: Ki, hDOR, [3H]DPDPE",36.1 nM
same,IC50,[6],5.4 nM
same,Kb,[6]; [17],5.4 ± 1.4 nM
same,activation at 1 µM,[6],0%
same,Ki,[3]; [18],27 nM
same,Ki,[3]; [19],27 nM
same,"LogIC50, rMOR, [3H]DAMGO",[3],−7.24 ± 0.15
same,Ki,"[3]; read-out: Ki, rMOR, [3H]DAMGO",27 nM
same,"LogEC50, hDOR, [35S]GTP-γ-S binding",[4],−7.30 ± 0.24
same,EC50,"[4]; Table 27, read-out: GTP binding hDOR EC50",50.2 nM
same,Emax,"[4]; Table 27, read-out: GTP binding hDOR Emax (%)",33.6%
same,EC50,"[4]; Table 39, read-out: GTP binding hDOR EC50",50.2 nM
same,Emax,"[4]; Table 39, read-out: GTP binding hDOR Emax",33.6%
same,Emax,"[4]; net total bound/basal binding × 100, read-out: Emax, hDOR, [35S]GTP-γ-S binding",35%
same,EC50,[4]; [20],50.2 nM
